Results published in US20250114338A1, “TETRAHYDRO-PYRIDO[3,4-b]INDOLE ESTROGEN RECEPTOR MODULATORS AND USES THEREOF” (Genentech, Inc., priority 2014, published 2025).

The compounds below were run on ER-alpha MCF7 (assay: ER-alpha MCF7 HCS EC50; stated as measured by in vitro cell proliferation assays of Examples 902 and 903). Conditions: Homo sapiens, MCF7, MCF7 cells; Table 2.
Assay type: cell-based
Procedure, shortened: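 MCF7 cells seeded 1000-2000 cells/well for 16 h, then treated with nine-point 1:2 DMSO dilution series in quadruplicate at 37 °C, 5% CO2 for 4 days. Viable cells quantified by CellTiter-Glo ATP luminescence; EC50 calculated. Controls: fulvestrant at final 100 nM, DMSO 0.2% v/v.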

SMILES	EC50
C[C@@H]1Cc2c([nH]c3ccccc23)[C@@H](c2c(F)cc(OC3CN(CCCF)C3)cc2F)N1C(=O)C1(F)CC1 [Example 238, [(1R,3R)-1-[2,6-difluoro-4-[1-(3-fluoropropyl)azetidin-3-yl]oxy-phenyl]-3-methyl-1,3,4,9-tetrahydropyrido[3,4-b]indol-2-yl]-(1-fluorocyclopropyl)methanone]	0.244 nM
C[C@@H]1Cc2c([nH]c3ccc(Cl)cc23)[C@@H](c2c(F)cc(OC3CN(CCCF)C3)cc2F)N1CC(C)(C)F [Example 239, (1R,3R)-6-chloro-1-(2,6-difluoro-4-((1-(3-fluoropropyl)azetidin-3-yl)oxy)phenyl)-2-(2-fluoro-2-methylpropyl)-3-methyl-2,3,4,9-tetrahydro-1H-pyrido[3,4-b]indole]	1.56 nM
C[C@@H]1Cc2c([nH]c3cc(F)ccc23)[C@@H](c2c(F)cc(OCCN3CC(CF)C3)cc2F)N1CC(C)(C)F [Example 240, (1R,3R)-1-(2,6-difluoro-4-(2-(3-(fluoromethyl)azetidin-1-yl)ethoxy)phenyl)-7-fluoro-2-(2-fluoro-2-methylpropyl)-3-methyl-2,3,4,9-tetrahydro-1H-pyrido[3,4-b]indole]	0.261 nM
C[C@@H]1Cc2c([nH]c3ccc(F)cc23)[C@@H](c2c(F)cc(OCCN3CC(CF)C3)cc2F)N1CC(C)(C)F [Example 241, (1R,3R)-1-(2,6-difluoro-4-(2-(3-(fluoromethyl)azetidin-1-yl)ethoxy)phenyl)-6-fluoro-2-(2-fluoro-2-methylpropyl)-3-methyl-2,3,4,9-tetrahydro-1H-pyrido[3,4-b]indole]	0.381 nM
C[C@@H]1Cc2c([nH]c3ccc(F)cc23)[C@@H](c2c(F)cc(OC3CN(CCCF)C3)cc2F)N1CC(C)(C)F [Example 242, (1R,3R)-1-(2,6-difluoro-4-((1-(3-fluoropropyl)azetidin-3-yl)oxy)phenyl)-6-fluoro-2-(2-fluoro-2-methylpropyl)-3-methyl-2,3,4,9-tetrahydro-1H-pyrido[3,4-b]indole]	5.42 nM
C[C@@H]1Cc2c([nH]c3ccccc23)[C@@H](c2c(F)cc(OCCN3CC(CF)C3)cc2F)N1CC1(CO)CC1 [Example 243, (1-(((1R,3R)-1-(2,6-difluoro-4-(2-(3-(fluoromethyl)azetidin-1-yl)ethoxy)phenyl)-3-methyl-1,3,4,9-tetrahydro-2H-pyrido[3,4-b]indol-2-yl)methyl)cyclopropyl) methanol]	2 nM
C[C@H]1Cc2c([nH]c3ccc(Cl)cc23)[C@H](c2c(F)cc(OC3CN(CCCF)C3)cc2F)N1CC(C)(C)F [Example 244, (1S,3S)-6-chloro-1-(2,6-difluoro-4-((1-(3-fluoropropyl)azetidin-3-yl)oxy)phenyl)-2-(2-fluoro-2-methylpropyl)-3-methyl-2,3,4,9-tetrahydro-1H-pyrido[3,4-b]indole]	63 nM
C[C@H]1Cc2c([nH]c3ccc(F)cc23)[C@H](c2c(F)cc(OCCN3CC(CF)C3)cc2F)N1CC(C)(C)F [Example 245, (1S,3S)-1-(2,6-difluoro-4-(2-(3-(fluoromethyl)azetidin-1-yl)ethoxy)phenyl)-6-fluoro-2-(2-fluoro-2-methylpropyl)-3-methyl-2,3,4,9-tetrahydro-1H-pyrido[3,4-b]indole]	35 nM
C[C@@H]1Cc2c([nH]c3ccccc23)[C@@H](c2c(F)cc(OC3CN(CCCF)C3)cc2F)N1CC1(C)COC1 [Example 246, (1R,3R)-1-[2,6-difluoro-4-[1-(3-fluoropropyl)azetidin-3-yl]oxy-phenyl]-3-methyl-2-[(3-methyloxetan-3-yl)methyl]-1,3,4,9-tetrahydropyrido[3,4-b]indole]	0.358 nM
C[C@@H]1Cc2c([nH]c3cccc(F)c23)[C@@H](c2c(F)cc(OCCN3CC(CF)C3)cc2F)N1CC(C)(C)F [Example 247, (1R,3R)-1-(2,6-difluoro-4-(2-(3-(fluoromethyl)azetidin-1-yl)ethoxy)phenyl)-5-fluoro-2-(2-fluoro-2-methylpropyl)-3-methyl-2,3,4,9-tetrahydro-1H-pyrido[3,4-b]indole]	4.34 nM
C[C@@H]1Cc2c([nH]c3cc(F)ccc23)[C@@H](c2c(F)cc(OC3CN(CCCF)C3)cc2F)N1CC(C)(C)F [Example 248, (1R,3R)-1-(2,6-difluoro-4-((1-(3-fluoropropyl)azetidin-3-yl)oxy)phenyl)-7-fluoro-2-(2-fluoro-2-methylpropyl)-3-methyl-2,3,4,9-tetrahydro-1H-pyrido[3,4-b]indole]	0.518 nM
C[C@@H]1Cc2c([nH]c3cccc(F)c23)[C@@H](c2c(F)cc(OC3CN(CCCF)C3)cc2F)N1CC(C)(C)F [Example 249, (1R,3R)-1-(2,6-difluoro-4-((1-(3-fluoropropyl)azetidin-3-yl)oxy)phenyl)-5-fluoro-2-(2-fluoro-2-methylpropyl)-3-methyl-2,3,4,9-tetrahydro-1H-pyrido[3,4-b]indole]	0.511 nM
C[C@@H]1Cc2c([nH]c3ccccc23)[C@@H](c2ccc(OCCN3CC[C@@H](CF)C3)cc2)N1CC(C)(C)F [Example 250, (1R,3R)-2-(2-fluoro-2-methyl-propyl)-1-[4-[2-[(3R)-3-(fluoromethyl)pyrrolidin-1-yl]ethoxy]phenyl]-3-methyl-1,3,4,9-tetrahydropyrido[3,4-b]indole]	0.275 nM
C[C@H]1Cc2c([nH]c3cccc(F)c23)[C@H](c2c(F)cc(OCCN3CC(CF)C3)cc2F)N1CC(C)(C)F [Example 251, (1S,3S)-1-(2,6-difluoro-4-(2-(3-(fluoromethyl)azetidin-1-yl)ethoxy)phenyl)-5-fluoro-2-(2-fluoro-2-methylpropyl)-3-methyl-2,3,4,9-tetrahydro-1H-pyrido[3,4-b]indole]	21 nM
C[C@H]1Cc2c([nH]c3cc(F)ccc23)[C@H](c2c(F)cc(OC3CN(CCCF)C3)cc2F)N1CC(C)(C)F [Example 252, (1S,3S)-1-(2,6-difluoro-4-((1-(3-fluoropropyl)azetidin-3-yl)oxy)phenyl)-7-fluoro-2-(2-fluoro-2-methylpropyl)-3-methyl-2,3,4,9-tetrahydro-1H-pyrido[3,4-b]indole]	50 nM
C[C@H]1Cc2c([nH]c3cccc(F)c23)[C@H](c2c(F)cc(OC3CN(CCCF)C3)cc2F)N1CC(C)(C)F [Example 253, (1S,3S)-1-(2,6-difluoro-4-((1-(3-fluoropropyl)azetidin-3-yl)oxy)phenyl)-5-fluoro-2-(2-fluoro-2-methylpropyl)-3-methyl-2,3,4,9-tetrahydro-1H-pyrido[3,4-b]indole]	35 nM
C[C@@H]1Cc2c([nH]c3ccccc23)[C@@H](c2c(F)cc(OCCN3CC(CF)C3)cc2F)N1CC(=O)N(C)C [Example 254, 2-[(1R,3R)-1-[2,6-difluoro-4-[2-[3-(fluoromethyl)azetidin-1-yl]ethoxy]phenyl]-3-methyl-1,3,4,9-tetrahydropyrido[3,4-b]indol-2-yl]-N,N-dimethyl-acetamide]	40 nM
C[C@@H]1Cc2c([nH]c3ccccc23)[C@@H](c2c(F)cc(OCCN3CC(CF)C3)cc2F)N1CC(C)(F)CO (stereo partly drawn) [Example 255, 3-((1R,3R)-1-(2,6-difluoro-4-(2-(3-(fluoromethyl)azetidin-1-yl)ethoxy)phenyl)-3-methyl-1,3,4,9-tetrahydro-2H-pyrido[3,4-b]indol-2-yl)-2-fluoro-2-methylpropan-1-ol]	0.01 nM
Cc1cc(OC2CN(CCCF)C2)ccc1[C@@H]1c2[nH]c3ccccc3c2C[C@@H](C)N1CC(C)(C)F [Example 256, (1R,3R)-2-(2-fluoro-2-methyl-propyl)-1-[4-[1-(3-fluoropropyl)azetidin-3-yl]oxy-2-methyl-phenyl]-3-methyl-1,3,4,9-tetrahydropyrido[3,4-b]indole]	1.69 nM
CC(C)(F)CN1[C@H](c2c(F)cc(OCCN3CC(CF)C3)cc2F)c2[nH]c3ccccc3c2CC1(C)C [Example 257, (1R)-1-[2,6-difluoro-4-[2-[3-(fluoromethyl)azetidin-1-yl]ethoxy]phenyl]-2-(2-fluoro-2-methyl-propyl)-3,3-dimethyl-4,9-dihydro-1H-pyrido[3,4-b]indole]	1.09 nM
CC(C)(F)CN1[C@@H](c2c(F)cc(OCCN3CC(CF)C3)cc2F)c2[nH]c3ccccc3c2CC1(C)C [Example 258, (S)-1-(2,6-difluoro-4-(2-(3-(fluoromethyl)azetidin-1-yl)ethoxy)phenyl)-2-(2-fluoro-2-methylpropyl)-3,3-dimethyl-2,3,4,9-tetrahydro-1H-pyrido[3,4-b]indole]	31 nM
C[C@@H]1Cc2c([nH]c3ccccc23)[C@@H](c2c(F)cc(OC3CN(CC4CC(F)(F)C4)C3)cc2F)N1CC(C)(C)F [Example 259, (1R,3R)-1-[4-[1-[(3,3-difluorocyclobutyl)methyl]azetidin-3-yl]oxy-2,6-difluoro-phenyl]-2-(2-fluoro-2-methyl-propyl)-3-methyl-1,3,4,9-tetrahydropyrido[3,4-b]indole]	0.444 nM
C[C@@H]1Cc2c([nH]c3c(F)cccc23)[C@@H](c2c(F)cc(OCCN3CC(CF)C3)cc2F)N1CC(C)(C)F [Example 260, (1R,3R)-1-(2,6-difluoro-4-(2-(3-(fluoromethyl)azetidin-1-yl)ethoxy)phenyl)-8-fluoro-2-(2-fluoro-2-methylpropyl)-3-methyl-2,3,4,9-tetrahydro-1H-pyrido[3,4-b]indole]	0.881 nM
C[C@@H]1Cc2c([nH]c3c(F)cccc23)[C@@H](c2c(F)cc(OC3CN(CCCF)C3)cc2F)N1CC(C)(C)F [Example 261, (1R,3R)-1-(2,6-difluoro-4-((1-(3-fluoropropyl)azetidin-3-yl)oxy)phenyl)-8-fluoro-2-(2-fluoro-2-methylpropyl)-3-methyl-2,3,4,9-tetrahydro-1H-pyrido[3,4-b]indole]	0.28 nM
C[C@H]1Cc2c([nH]c3c(F)cccc23)[C@H](c2c(F)cc(OCCN3CC(CF)C3)cc2F)N1CC(C)(C)F [Example 262, (1S,3S)-1-(2,6-difluoro-4-(2-(3-(fluoromethyl)azetidin-1-yl)ethoxy)phenyl)-8-fluoro-2-(2-fluoro-2-methylpropyl)-3-methyl-2,3,4,9-tetrahydro-1H-pyrido[3,4-b]indole]	26 nM
